These are literature values, as cited in publication PMC10178506, “Chemical and Biological Evaluation of Novel 1H-Chromeno[3,2-c]pyridine Derivatives as MAO Inhibitors Endowed with Potential Anticancer Activity” (International Journal of Molecular Sciences, 2023).

One data set deals with MAO B. On the set-up: method as in PMID 32716595. To be noted: read-out: MAO B IC50 (previous work); cited from earlier work.
For the next data set, the system named is AChE. Further details: method as in PMID 32716595. As to conditions: read-out: AChE IC50 (previous work); cited from earlier work.

`CC(C)N1CCc2oc3ccc(Br)cc3c(=O)c2C1`: the results for the IC50 in the data set on MAO B and with AChE were 2230 nM and 3220 nM, respectively.

In the case of `CCOc1cccc2c(=O)c3c(oc12)CCN(Cc1ccccc1)C3`, the IC50 in the data set on MAO B was 890 nM.
